Results as given in US20220017486A1, “DOCK1-INHIBITING COMPOUND AND USE THEREOF” (KYUSHU UNIVERSITY, NATIONAL UNIVERSITY CORPORATION, priority 2018, published 2022).

Tests used:
[1] = tested on: mouse lung carcinoma cell line (3LL); assay: Tumor growth of subcutaneously transplanted mouse lung carcinoma cells; format: in vivo, C57BL/6 mice; conditions: 3LL s.c. in mice, 0.25 mg/300 μL, day 26 to day 29
Experimental: The mouse lung carcinoma cell line (3LL) was suspended in 200 μL of PBS(−), and transplanted (5×10^5 cells per mouse) into the dorsal subcutaneous region of C57BL/6 mice (6 weeks old). To a 6:1:1 mixture of PBS/Cremophor EL/ethanol, RT-22 as a representative of the compounds of the present invention was added to a concentration of 0.25 mg/300 μL, and the resulting mixture was loaded into an SMP-300 micro infusion pump (iPRECIO), which was subcutaneously implanted on the previous day of the transplantation, to perform continuous intravenous administration (n=5 mice). The control group was only administered with an equivalent volume of a solvent (a 6:1:1 mixture of PBS/Cremophor EL/ethanol) (n=6 mice). The transverse and longitudinal diameters of the tumor mass were measured over time for a period of 4 weeks from the start of administration, and the tumor volume (V) was calculated according to the formula: V=π/6x√((transverse diameter×longitudinal diameter)^3).

[2] = tested on: mouse lung carcinoma cell line (3LL cells); assay: Cell invasion inhibition assay (Matrigel invasion chamber); format: cell-based; conditions: 22 hours, DMSO control as 100% invasion
Experimental: In this Pharmacological Test, the inhibitory effect of each test compound on cell invasion response was evaluated using a mouse lung carcinoma cell line (3LL cells), a mouse pancreatic cancer cell line (PANC02 cells), and a human breast cancer cell line (MDA-MB-157 cells). Of these, the mouse lung carcinoma cell line (3LL) is a cancer cell line with mutant Ras (K-Ras (G12C)), and the human breast cancer cell line (MDA-MB-157) is a cancer cell line with mutant Rac (Rac1 (P29S)). The experiments were performed in BD BioCoat Matrigel invasion chambers (BD Biosciences).
Specifically, an upper chamber with a Matrigel-coated membrane insert (8 μm pores) at the bottom was equilibrated with DMEM (serum-free medium) for 120 minutes. Thereafter, 300 μL of a suspension of a cancer cell line in DMEM (serum-free) was placed in the upper chamber while 500 μL of DMEM (with 10 mass % FCS) was placed in the lower chamber. Each test compound dissolved in DMSO at a predetermined concentration was added to both the culture media in the upper and lower chambers. As a control, DMSO alone was added to both the culture media in the upper and lower chambers. In all of the experiments, the final DMSO concentration in the culture media was adjusted to 0.2 mass %.
The resulting products were cultured under 5% CO2 at 37° C. for 22 hours (3LL and PANC02 cells) or 48 hours (MDA-MB-157 cells). Then, the upper chamber was removed, and the culture medium was removed. Thereafter, non-invading cells remaining in the upper chamber were removed using a cotton swab, and the cells remaining outside the bottom of the upper chamber (cells that had invaded into the Matrigel, and passed through the membrane insert) were stained with Diff-Quick (Sysmex). After staining, the membrane inserts with Matrigel were cut out using a scalpel to prepare slides, and the number of invading cells was counted under an optical microscope.
The results were evaluated based on percent cell invasion (%: Invasion) and percent inhibition (%: Inhibition). The percent cell invasion was obtained by converting the number of invading cells in the presence of each test compound into a percentage, taking the number of invading cells in the control test, in which DMSO was added alone, as 100%; and the percent inhibition was obtained by deducting the percent cell invasion from 100.

DOCK1 (DHR-2 domain) = biological target: T1, DOCK1 (DHR-2 domain) (Homo sapiens, UniProt Q14185); assay: In vitro GEF assay: Rac activation by DOCK1 DHR-2 domain; format: biochemical, mice and humans
T1 construct: polypeptide fragments corresponding to the DHR-2 domain of DOCK1 or DOCK2 from mice and humans; Histidine-SUMO (N); made in house; host or cells: E. coli Arctic express (DE3)
T1 sequence (Q14185 1207-1617 limits assumed): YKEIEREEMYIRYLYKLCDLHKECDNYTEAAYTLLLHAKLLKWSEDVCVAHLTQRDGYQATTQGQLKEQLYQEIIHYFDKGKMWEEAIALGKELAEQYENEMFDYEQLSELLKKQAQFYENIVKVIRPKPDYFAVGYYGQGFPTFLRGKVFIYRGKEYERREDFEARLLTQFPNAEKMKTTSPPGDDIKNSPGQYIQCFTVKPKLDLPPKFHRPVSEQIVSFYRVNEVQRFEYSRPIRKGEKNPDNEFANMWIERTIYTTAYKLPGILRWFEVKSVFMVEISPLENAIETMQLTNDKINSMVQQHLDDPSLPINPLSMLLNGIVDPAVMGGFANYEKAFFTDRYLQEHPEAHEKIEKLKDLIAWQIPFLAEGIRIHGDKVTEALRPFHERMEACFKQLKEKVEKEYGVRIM
Experimental: DOCK1 and DOCK2, i.e., DOCK-A subfamily members, both activate Rac by catalyzing the GTP-GDP exchange reaction for Rac via their DHR-2 domains. Therefore, in this Pharmacological Test, the inhibitory effect of the compounds of the present invention on Rac activation by DOCK1 or DOCK2 was assessed in an in vitro GEF assay by using polypeptide fragments corresponding to the DHR-2 domain of DOCK1 or DOCK2 from mice and humans. The in vitro GEF assay was performed using a labeled GTP (Bodipy-FL-GTP, Invitrogen), which has a property of increasing the fluorescence intensity when bound to Rac.
The polypeptide fragments corresponding to the DHR-2 domain of DOCK1 or DOCK2 were prepared by expression in E. coli Arctic express (DE3) cells as N-terminal. Histidine-SUMO tag-fused recombinant proteins, followed by purification by affinity column chromatography on nickel-NTA columns.
Rac was prepared by expression in E. coli BL21 (DE3) cells as an N-terminal GST tag-fused recombinant protein, followed by purification by affinity column chromatography on glutathione-Sepharose columns.
Each of the polypeptide fragments corresponding to the DHR-2 domain of DOCK1 or DOCK2, and a predetermined concentration of each test compound (the compounds of the present invention: 33 types of compounds; and comparative compound: TBOPP) dissolved in DMSO were incubated in a reaction solution A (pH 7.0), which contained 20 mM of MES-NaOH, 150 mM of NaCl, 10 mM of MgCl2, and 20 μM of GDP for 20 minutes at room temperature while being shielded from light to thus prepare GEF pretreated products. The final concentration of DMSO was adjusted to 1 mass % in all of the test samples. For a control test, a GEF pretreated product (control) was prepared by incubation in the same manner using DMSO with no test compounds, instead of the DMSO used above in which each test compound was dissolved.
Separately, Rac was added to the reaction solution A (pH 7.0) to a concentration of 15 μM, and was allowed to stand on for 30 min to form a GDP-Rac complex. Bodipy-FL-GTP was added to a concentration of 3.6 μM to 100 μL of the reaction solution A that contained the thus-prepared GDP-Rac complex, and equilibrated at 30° C. for 2 minutes. After equilibration, 50 μL of the GEF pretreated product prepared as described above was added and reacted at 30° C.
Changes in fluorescence intensity of Bodipy-FL-GTP in the reaction solutions were monitored using an EnSpire spectrofluorometer (Perkin Elmer) (excitation wavelength: 488 nm, fluorescence wavelength: 514 nm). The measured values were corrected so that the fluorescence intensity at the beginning of the reaction (0 sec) was 0. Then, an approximate curve (hyperbola) was obtained by plotting the calculated correction values on the y-axis and the time (t) on the x-axis using GraphPad Prism5 (GraphPad software), and the slope at t=0 to 10 seconds was defined as the initial velocity of the guanine nucleotide exchange reaction. The IC50 value was calculated taking the initial reaction velocity of the control, to which only a solvent (DMSO) was added, as 100%.
Based on the obtained results, columns A and B of FIG. 1, FIG. 2, FIG. 3-1, and FIG. 3-2 show the results evaluating the inhibitory effect on Rac activation by DOCK1 (DHR-2 domain) (IC50 value), and DOCK1-selective inhibitory effect (DOCK1/DOCK2 selectivity) of each test compound. The inhibitory effect on Rac activation by DOCK1 (DHR-2 domain) (IC50 value) was determined from the reaction inhibition curve plotted using values of Rac activation by the DOCK1 DHR-2 domain in the presence of various concentrations of the test compounds, taking the values of the control as 100%. […]

## O=C(Cn1cc(S(=O)(=O)N2CCCC2)ccc1=O)c1ccc(-c2cccc(C(F)(F)F)c2)cc1 [TBOPP, 1-(2-oxo-2-(3′-(trifluoromethyl)-[1,1′-biphenyl]-4-yl)ethyl)-5-(pyrrolidin-1-ylsulfonyl)pyridin-2(1H)-one, reference compound]
[1]
  tumor size reduced by, compared to the control group: 21-24%
[2]
  percent cell invasion inhibition: 95%
DOCK1 (DHR-2 domain); IC50 for DOCK2 divided by IC50 for DOCK1
  DOCK1-selective inhibitory effect (DOCK1/DOCK2 selectivity): 2.6
DOCK1 (DHR-2 domain); in vitro GEF assay, Bodipy-FL-GTP, DMSO control as 100%, read-out: inhibitory effect (IC50 value) on Rac activation by DOCK1 (DHR-2 domain)
  IC50: 8.4 µM
